In PubChem BioAssay (NCI):
Several values for one entry are separate records, joined by “and”; a condition that tells them apart may be missing. Identical values can stand only once.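 1) Cells in 96-well plates. 2) Compound, 48 h, 5 concentrations. 3) Linear interpolation between surrounding doses. 4) Unreached endpoint = highest concentration. Here, GI50 denotes the concentration required for 50% inhibition of growth. TGI: total growth inhibition.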

Tests used:
Assay in all cases: NCI anticancer screen, dose series, 48 h
786-0 renal = system: 786-0 renal
HOP-92 NSCLC = system: HOP-92 NSCLC
HT29 colon = system: HT29 colon
LOX IMVI melanoma = system: LOX IMVI melanoma
NCI-H460 lung = system: NCI-H460 lung
NCI-H522 lung = system: NCI-H522 lung
OVCAR-4 ovarian = system: OVCAR-4 ovarian
SK-MEL-5 melanoma = system: SK-MEL-5 melanoma
SNB-75 CNS = system: SNB-75 CNS
UACC-62 melanoma = system: UACC-62 melanoma

Row | Compound | GI50 (786-0 renal) | TGI (786-0 renal) | GI50 (HOP-92 NSCLC) | TGI (HOP-92 NSCLC) | GI50 (HT29 colon) | TGI (HT29 colon) | GI50 (LOX IMVI melanoma) | TGI (LOX IMVI melanoma) | GI50 (NCI-H460 lung) | TGI (NCI-H460 lung) | GI50 (NCI-H522 lung) | TGI (NCI-H522 lung) | GI50 (OVCAR-4 ovarian) | TGI (OVCAR-4 ovarian) | GI50 (SK-MEL-5 melanoma) | TGI (SK-MEL-5 melanoma) | GI50 (SNB-75 CNS) | TGI (SNB-75 CNS) | GI50 (UACC-62 melanoma) | TGI (UACC-62 melanoma)
1 | Cc1cc(Cc2cc(C)c(O)c(C)c2)cc(C)c1O | 10.4 µM | 40.4 µM | 4.35 µM | 29.4 µM | 8.87 µM | 33.8 µM | 6.64 µM | 33.3 µM | 3.33 µM | 11.8 µM | 3.49 µM | 15.4 µM | 29 µM | > 100 µM | 4.53 µM | 17.5 µM | 2.59 µM | 25.9 µM | 5.41 µM | 62.6 µM
2 | Clc1ccccc1C(n1ncc2ccccc21)n1ncc2ccccc21 |  | > 100 µM |  | > 100 µM |  | > 100 µM |  | > 100 µM |  | > 100 µM |  | > 100 µM |  | > 100 µM |  | 57.7 µM |  | 65.6 µM |  | > 10 µM
3 | COc1cc(NS(C)(=O)=O)ccc1Nc1c2ccccc2nc2c(C)cccc12 | 0.16 µM and 0.17 µM | 0.923 µM and 1.34 µM | 0.0495 µM and 0.104 µM | 1.1 µM and 2.27 µM | 0.443 µM and 0.372 µM | 8.98 µM and 2.09 µM | 0.0512 µM and 0.0544 µM | 1.35 µM and 1.51 µM | 0.0175 µM and 0.022 µM | 1.1 µM and 1.08 µM | 0.662 µM and 0.219 µM | 12.2 µM and 2.98 µM | 1.86 µM and 2.6 µM | 9.74 µM and 16.7 µM | 0.153 µM and 0.218 µM | 1.2 µM and 3.69 µM | 0.143 µM and 0.316 µM | 4.31 µM and 10.7 µM | 0.182 µM and 0.211 µM | 2.97 µM and 4.19 µM
4 | CN(Cc1cnc(N)nc1N)c1ccc(C(=O)O)cc1 | > 100 µM | > 100 µM | > 100 µM | > 100 µM | > 100 µM | > 100 µM | > 100 µM | > 100 µM | > 100 µM | > 100 µM | > 100 µM | > 100 µM | > 100 µM | > 100 µM | > 100 µM | > 100 µM | > 100 µM | > 100 µM | > 100 µM | > 100 µM
5 | O=C1c2ccccc2C(=O)C2C1C1C(=O)c3ccccc3C(=O)C21 (stereo not drawn) |  | > 100 µM |  | > 100 µM |  | > 100 µM |  | > 100 µM |  | > 100 µM |  | > 100 µM |  | > 100 µM |  | > 100 µM |  | > 100 µM |  | > 100 µM
6 | Cc1cc(=O)n(-c2ccccc2)c(=O)o1 |  | > 100 µM |  | > 100 µM |  | > 100 µM |  | > 100 µM |  | > 100 µM |  | > 100 µM |  | > 100 µM |  | > 100 µM |  | > 100 µM |  | > 100 µM
7 | Cc1csc(/C=N/NC(=O)c2nnn(-c3ccnc4c(C(F)(F)F)cccc34)c2C)c1 | > 100 µM | > 100 µM | 55.8 µM | > 100 µM | 10.1 µM | 82.5 µM | 72.2 µM | > 100 µM | > 100 µM | > 100 µM | 28.7 µM | > 100 µM | 5.2 µM | 37.4 µM | 27.2 µM | > 100 µM | 27.2 µM | 92.1 µM | 74.7 µM | > 100 µM
8 | O=c1oc2cc(N=Cc3ccccc3Cl)ccc2c2ccccc12 |  | > 100 µM |  | > 100 µM |  | > 100 µM |  | > 100 µM |  | > 100 µM |  | > 100 µM |  | > 100 µM |  | > 100 µM |  | > 100 µM |  | > 100 µM
9 | CC(C)N(C(=O)C12C3C4C5C3C1(C(=O)N(C(C)C)C(C)C)C5(C#N)C42)C(C)C (stereo not drawn) |  | > 100 µM |  | > 100 µM |  | > 100 µM |  | 47.2 µM |  | > 100 µM |  | > 100 µM |  | > 100 µM |  | > 100 µM |  | > 100 µM |  | > 100 µM
10 | COc1cc2ccccc2c2cc([N+](=O)[O-])oc12 |  | 7.49 µM |  | 4.54 µM |  | 21.9 µM |  | 3.93 µM |  | 1.06 µM |  | 1.35 µM |  | > 44 µM |  | 0.293 µM |  | 6.9 µM |  | 2.36 µM
11 | O=C(c1ccccc1)C(c1ccccc1)C1(O)C(=O)Nc2ccccc21 (stereo not drawn) |  | > 100 µM |  | > 100 µM |  | > 100 µM |  | > 100 µM |  | > 100 µM |  | > 100 µM |  | > 100 µM |  | > 100 µM |  | > 100 µM |  | > 100 µM
12 | O=C(COc1ccc(/C=C2\Oc3ccccc3C2=O)cc1)Nc1nccs1 | 54.9 µM | > 100 µM | 1.53 µM | 4.85 µM | > 100 µM | > 100 µM | 0.371 µM | > 100 µM | 88 µM | > 100 µM |  |  | 70.4 µM | > 100 µM | 64.4 µM | > 100 µM | 17.4 µM | 72.6 µM | > 100 µM | > 100 µM
13 | CCN(CC)C(=O)CC1=C(C)/C(=C/c2[nH]c(-c3ccc[nH]3)cc2OC)N=C1C | 0.549 µM | 3.36 µM | 0.235 µM | 0.977 µM | 0.287 µM | 48.3 µM | 0.199 µM | 0.513 µM | 0.366 µM | 14.2 µM | 0.456 µM | 14 µM | 0.409 µM | > 100 µM |  |  | 0.307 µM | 3.35 µM |  | 
14 | COc1ccc(C2=Nc3ccccc3SC(C)C2)cc1 (stereo not drawn) |  | > 100 µM |  | > 100 µM |  | > 100 µM |  | > 100 µM |  | > 100 µM |  | > 100 µM |  | > 100 µM |  |  |  | > 100 µM |  | > 100 µM
